Test results reported in patent US20240024251A1, “POLYSACCHARIDE ENCAPSULATED OXYGEN NANOBUBBLES” (THE BOARD OF TRUSTEES OF THE UNIVERSITY OF ILLINOIS, priority 2020, published 2024).

Tested on: R-28 and ARPE-19 cell line
Conditions: rat (R-28), human (ARPE-19), 48 h
Experimental: The biosafety of DONBs and excipients used in the formulation was evaluated on retinal precursor cells R-28 and retinal pigment epithelial cells (ARPE-19). The suspensions of the following cell line (100 μL, −60,000 cells/mL) were seeded into each well of a 96-well plate and cultured overnight. The cells were cultured for 24 h in the dark.
Excipient toxicity studies on ARPE-19 and R28 cell line. Cell viability was conducted with ARPE-19 and R28 cell lines, in response to treatment with nanobubble excipients, using the [3-(4, 5-dimethylthiazol-2-yl)-2, 5-diphenyl tetrazolium bromide](MTT) assay. The MTT reagent (Cat no. M6494, Thermo Fisher Scientific) was prepared by dissolving 5 mg of MTT per 1 ml of phosphate-buffered saline (Cat no. 21-040-CV, Corning), filter sterilized using a 0.22 μm filter, and stored in dark at 4° C. Yellow MTT is reduced to purple formazan in the mitochondria of living cells. Cells were grown to 80-90% confluence in a T-25 flask, dissociated using trypsin, and seeded into a 96-well plate at a density of 10000 cells per well. […] The absorbance was measured at 590 nm with a reference filter of 620 nm.

Structure (SMILES): OC[C@H]1O[C@H](O[C@H]2O[C@H](CO)[C@@H](O)[C@H](O)[C@H]2O)[C@H](O)[C@@H](O)[C@@H]1O [Trehalose, D-(+)-Trehalose dihydrate]
- excipient concentration producing some toxic effect on cell viability: 0.6 to 0.7 mg
